Experimental data reported in ChEMBL document CHEMBL3639270, “Therapeutic agents” (2013).
pIC50: −log10 of the molar value.

Target: E3 ubiquitin-protein ligase Mdm2 (Homo sapiens, UniProt Q00987)
Experiment: ELISA Assay: Streptavidin-coated 96-well plates are used to immobilise a biotin-tagged IP3 p53-derived peptide ([…]). This is a peptide analogue derived from the p53 binding site for MDM2 ([…]). […] Aliquots of MDM2 generated by in vitro translation are pre-incubated for 20 minutes at room temperature (i.e. 20-25C.) with test compounds and controls, before transfer into the IP3-coated 96-well plates.

Sequence of E3 ubiquitin-protein ligase Mdm2 (Q00987 whole entry): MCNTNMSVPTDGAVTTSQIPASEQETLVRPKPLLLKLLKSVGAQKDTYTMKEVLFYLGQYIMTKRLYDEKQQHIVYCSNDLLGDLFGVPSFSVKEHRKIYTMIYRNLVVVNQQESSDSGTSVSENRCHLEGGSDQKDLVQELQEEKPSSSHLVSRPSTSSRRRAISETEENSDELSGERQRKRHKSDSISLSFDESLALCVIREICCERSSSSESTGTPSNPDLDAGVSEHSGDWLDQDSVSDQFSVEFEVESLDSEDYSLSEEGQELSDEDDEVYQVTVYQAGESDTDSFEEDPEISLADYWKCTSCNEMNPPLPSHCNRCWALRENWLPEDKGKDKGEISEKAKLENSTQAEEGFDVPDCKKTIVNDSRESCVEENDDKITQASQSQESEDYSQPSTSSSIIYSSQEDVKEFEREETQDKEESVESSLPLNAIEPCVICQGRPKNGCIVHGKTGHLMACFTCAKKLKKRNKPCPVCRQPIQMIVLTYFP

**Q.** How did the pIC50 turn out when `O=C1c2ccccc2C(O[C@H]2CCC[C@@H](O)CCC2)(c2ccc(Cl)cc2)N1Cc1ccc([N+](=O)[O-])cc1` (stereo partly specified) was run?
**A.** 6.43
